Patent US12247011B2, “Selective inhibitors of NLRP3 inflammasome” (NodThera Limited, priority 2017, dated 2025)

Tested on: IL-1β release upon NLRP3 activation in peripheral blood mononuclear cells (PBMC)
Assay: PBMC IC50 Determination Assay
Type: cell-based
Settings: Homo sapiens; LPS-primed PBMC, 30 min compound, stimulated with ATP (5 mM) or nigericin (10 μM) for 1 h; IL-1β ELISA; read-out: PBMC IC50
Experimental: PBMC IC50 Determination Assay
The compounds of the present disclosure were tested for their inhibitory activity against IL-1β release upon NLRP3 activation in peripheral blood mononuclear cells (PBMC).
Isolated cells were seeded into the wells of a 96-well plate and incubated for 3 h with lipopolysaccharide (LPS). Following medium exchange, the compounds of the present disclosure were added (a single compound per well) and the cells were incubated for 30 min. Next, the cells were stimulated either with ATP (5 mM) or nigericin (10 μM) for 1 h and the cell culture media from the wells were collected for further analysis.
The release of IL-1β into the media was determined by a quantitative detection of IL-1β in the media using an IL-1β enzyme-linked immunosorbent assay (ELISA) Ready-SET-Go!, eBioscience cat. […] Subsequently, plates were blocked with blocking buffer for 1 h at room temperature (rt) and after washing with a buffer (PBS with 0.05% Tween-20) incubated with protein standard and culture media. […] Plates were washed and incubated with HRP-streptavidin for 30 min at rt and washed again. The signal was developed after addition of 3,3,5,5-tetramethylbenzidine-peroxidase (TMB) until colour appeared and the reaction was stopped by 2 M H2SO4. A microplate spectrophotometer (BioTek) was used to detect signals with 450 nm. The detection range of IL-1β ELISA was 2-150 ng/ml.

Compound	IC50 [nM]
CC(C)OC(=O)C(Cc1ncccn1)OC(=O)Nc1c(F)cccc1Cl (stereo not drawn) [Compound 123, Propan-2-yl 2-{[(2-chloro-6-fluorophenyl)carbamoyl]oxy}-3-(pyrimidin-2-yl)propanoate]	100 to 1000
CC(C)OC(=O)C(Cc1ncccn1)OC(=O)NC12CCC(CC1)CC2 (stereo not drawn) [Compound 127, Propan-2-yl 2-[({bicyclo[2.2.2]octan-1-yl}carbamoyl)oxy]-3-(pyrimidin-2-yl)propanoate]	1000 to 10000
O=C(Nc1c2c(cc3c1CCC3)CCC2)OC(Cn1cccn1)C(=O)O (stereo not drawn) [Compound 40, 2-{[(1,2,3,5,6,7-hexahydro-s-indacen-4-yl)carbamoyl]oxy}-3-(1H-pyrazol-1-yl)propanoic acid]	100 to 1000
CCOC(=O)C(Cn1cccn1)OC(=O)Nc1c(C)cccc1Cl (stereo not drawn) [Compound 51, Ethyl 2-{[(2-chloro-6-methylphenyl)carbamoyl]oxy}-3-(1H-pyrazol-1-yl)propanoate]	1000 to 10000
CCOC(=O)C(Cn1cccn1)OC(=O)Nc1c(F)cccc1Cl (stereo not drawn) [Compound 50, Ethyl 2-{[(2-chloro-6-fluorophenyl)carbamoyl]oxy}-3-(1H-pyrazol-1-yl)propanoate]	100 to 1000
O=C(COC(=O)Nc1c2c(cc3c1CCC3)CCC2)OC1CCC1 [Compound 23, Cyclobutyl 2-{[(1,2,3,5,6,7-hexahydro-s-indacen-4-yl)carbamoyl]oxy}acetate]	100 to 1000
CCOC(=O)[C@@H](Cn1cncc1C#N)OC(=O)Nc1c2c(cc3c1CCC3)CCC2 [Compound 90, Ethyl (2R)-3-(5-cyano-1H-imidazol-1-yl)-2-{[(1,2,3,5,6,7-hexahydro-s-indacen-4-yl)carbamoyl]oxy}propanoate]	1000 to 10000
CCOC(=O)C(Cn1cccn1)OC(=O)Nc1c2c(cc3c1OCC3)OCC2 (stereo not drawn) [Compound 100, Ethyl 2-[({4,10-dioxatricyclo[7.3.0.0^3,7]dodeca-1,3(7),8-trien-2-yl}carbamoyl)oxy]-3-(1H-pyrazol-1-yl)propanoate]	1000 to 10000
CCOC(=O)[C@@H](Cn1ccc(C#N)n1)OC(=O)Nc1c2c(cc3c1CCC3)CCC2 [Compound 96, Ethyl (2R)-3-(3-cyano-1H-pyrazol-1-yl)-2-{[(1,2,3,5,6,7-hexahydro-s-indacen-4-yl)carbamoyl]oxy}propanoate]	100 to 1000
CC(C)OC(=O)COC(=O)Nc1c2c(cc3c1CCC3)CCC2 [Compound 20, Propan-2-yl 2-{[(1,2,3,5,6,7-hexahydro-s-indacen-4-yl)carbamoyl]oxy}acetate]	100 to 1000
N#Cc1cnn(C[C@@H](OC(=O)Nc2c3c(cc4c2CCC4)CCC3)C(=O)OCc2ccccc2)c1 [Compound 77, Benzyl (2R)-3-(4-cyano-1H-pyrazol-1-yl)-2-{[(1,2,3,5,6,7-hexahydro-s-indacen-4-yl)carbamoyl]oxy}propanoate]	10 to 100
CCOC(=O)COC(=O)Nc1cccc2c1OC(C)(C)C2 [Compound 5, Ethyl 2-{[(2,2-dimethyl-2,3-dihydro-1-benzofuran-7-yl)carbamoyl]oxy}acetate]	> 10000
CCOC(=O)C(Cn1cccn1)OC(=O)Nc1c(C)cccc1CC (stereo not drawn) [Compound 46, Ethyl 2-{[(2-ethyl-6-methylphenyl)carbamoyl]oxy}-3-(1H-pyrazol-1-yl)propanoate]	100 to 1000
CCOC(=O)C(Cc1cccnn1)OC(=O)Nc1c2c(cc3c1CCC3)CCC2 (stereo not drawn) [Compound 62, Ethyl 2-{[(1,2,3,5,6,7-hexahydro-s-indacen-4-yl)carbamoyl]oxy}-3-(pyridazin-3-yl)propanoate]	100 to 1000
O=C(O)COC(=O)Nc1c2c(cc3c1CCC3)CCC2 [Compound 27, 2-{[(1,2,3,5,6,7-Hexahydro-s-indacen-4-yl)carbamoyl]oxy}acetic acid]	1000 to 10000
CCOC(=O)C(Cn1cccn1)OC(=O)Nc1c(C)cccc1C(C)C (stereo not drawn) [Compound 74, Ethyl 2-({[2-methyl-6-(propan-2-yl)phenyl]carbamoyl}oxy)-3-(1H-pyrazol-1-yl)propanoate]	100 to 1000
O=C(Nc1c2c(cc3c1CCC3)CCC2)O[C@H](Cc1ncccn1)C(=O)O [Compound 106, (2R)-2-{[(1,2,3,5,6,7-hexahydro-s-indacen-4-yl)carbamoyl]oxy}-3-(pyrimidin-2-yl)propanoic acid]	100 to 1000
COC(=O)COC(=O)Nc1c2c(cc3c1CCC3)CCC2 [Compound 29, Methyl 2-{[(1,2,3,5,6,7-hexahydro-s-indacen-4-yl)carbamoyl]oxy}acetate]	1000 to 10000
CCOC(=O)[C@@H](Cn1cnc(C#N)c1)OC(=O)Nc1c2c(cc3c1CCC3)CCC2 [Compound 89, Ethyl (2R)-3-(4-cyano-1H-imidazol-1-yl)-2-{[(1,2,3,5,6,7-hexahydro-s-indacen-4-yl)carbamoyl]oxy}propanoate]	100 to 1000
CCOC(=O)C(Cn1ccnc1)OC(=O)Nc1c2c(cc3c1CCC3)CCC2 (stereo not drawn) [Compound 33, Ethyl 2-{[(1,2,3,5,6,7-hexahydro-s-indacen-4-yl)carbamoyl]oxy}-3-(1H-imidazol-1-yl)propanoate]	100 to 1000
O=C(Nc1c2c(cc3c1CCC3)CCC2)O[C@H](Cc1cnccn1)C(=O)OC1CCCC1 [Compound 111, Cyclopentyl (2R)-2-{[(1,2,3,5,6,7-hexahydro-s-indacen-4-yl)carbamoyl]oxy}-3-(pyrazin-2-yl)propanoate]	< 10
CCOC(=O)C(Cn1ccnc1C)OC(=O)Nc1c2c(cc3c1CCC3)CCC2 (stereo not drawn) [Compound 84, Ethyl 2-{[(1,2,3,5,6,7-hexahydro-s-indacen-4-yl)carbamoyl]oxy}-3-(2-methyl-1H-imidazol-1-yl)propanoate]	1000 to 10000
CCOC(=O)COC(=O)Nc1cc(C)ccc1C [Compound 37, Ethyl 2-{[(2,5-dimethylphenyl)carbamoyl]oxy}acetate]	100 to 1000
CC(C)OC(=O)C(Cc1ncccn1)OC(=O)N[C@H]1CCCC[C@@H]1C (relative stereo) [Compound 129, Propan-2-yl 2-{[(trans-2-methylcyclohexyl)carbamoyl]oxy}-3-(pyrimidin-2-yl)propanoate]	1000 to 10000
CCOC(=O)[C@@H](COC)OC(=O)Nc1c2c(cc3c1CCC3)CCC2 [Compound 68, Ethyl (2R)-2-{[(1,2,3,5,6,7-hexahydro-indacen-4-yl)carbamoyl]oxy}-3-methoxypropanoate]	1000 to 10000
CCCOC(=O)COC(=O)Nc1c2c(cc3c1CCC3)CCC2 [Compound 21]	100 to 1000
N#Cc1cnn(C[C@@H](OC(=O)Nc2c3c(cc4c2CCC4)CCC3)C(=O)O)c1 [Compound 82, (2R)-3-(4-cyano-1H-pyrazol-1-yl)-2-{[(1,2,3,5,6,7-hexahydro-s-indacen-4-yl)carbamoyl]oxy}propanoic acid]	10 to 100
CC(C)OC(=O)C(Cc1ncccn1)OC(=O)Nc1c(F)cccc1F (stereo not drawn) [Compound 124, Propan-2-yl 2-{[(2,6-difluorophenyl)carbamoyl]oxy}-3-(pyrimidin-2-yl)propanoate]	100 to 1000
CCOC[C@@H](OC(=O)Nc1c2c(cc3c1CCC3)CCC2)C(=O)OCC [Compound 95, Ethyl (2R)-3-ethoxy-2-{[(1,2,3,5,6,7-hexahydro-s-indacen-4-yl)carbamoyl]oxy}propanoate]	100 to 1000
CCOC(=O)COC(=O)Nc1c(C)cc(C)cc1C [Compound 14, Ethyl 2-((mesitylcarbamoyl)oxy)acetate]	1000 to 10000
